Results on eleven compounds are retold here after ChEMBL document CHEMBL1201862, “PubChem BioAssay data set” (2004).

Among the test systems are NCI-H522; SK-MEL-5; HCC 2998; HOP-92; UO-31; HL-60; NCI-H226; NCI/ADR-RES; PC-3; KM12; NCI-H23; OVCAR-4; U-251; OVCAR-3; 786-0; CAKI-1; SF-268; HCT-15; BT-549; ACHN.
What all share (experiment): NCI tumour cell line growth inhibition, 48 h

Molecules are shown by their SMILES.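 96-well plates; 48 h exposure; 5 concentrations. Endpoints by linear interpolation between flanking doses. Not reached: highest tested concentration assigned. Here, GI50 denotes the concentration required for 50% inhibition of growth.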 The source made the active and inactive calls. Cut-off read from the data, not from the text of the source: active = GI50 up to about 1.1 µM and inactive = higher. A value given as a limit tells only on which side of the number the result lay.

For the compound `Cc1ccc(C(=O)N(C2CCCCC2)C2CCCCC2)cc1/N=N/N(C)C`, the GI50 with NCI-H522 was 6.01 µM (inactive); in the experiment with SK-MEL-5, 14.3 µM (inactive); with HCC 2998, 15.7 µM (inactive); in the experiment with HOP-92 it was 11 µM (inactive); in the experiment with UO-31 it was 12.8 µM (inactive); in the experiment on HL-60, 6.07 µM (inactive). Moreover, the GI50 in the experiment on NCI-H226 was 19.7 µM (inactive); with NCI/ADR-RES, 19.5 µM (inactive); in the experiment on PC-3 it was 10.4 µM (inactive); in the experiment on KM12, 6.71 µM (inactive); with NCI-H23, 11.3 µM (inactive); in the experiment with OVCAR-4 it was 10.4 µM (inactive). Also, the GI50 in the experiment with U-251 is 18.4 µM (inactive); in the experiment on OVCAR-3 it was 6.34 µM (inactive); in the experiment with 786-0, 15.3 µM (inactive); in the experiment with CAKI-1 it was 12.9 µM (inactive); with SF-268, 10.8 µM (inactive); with HCT-15 it was 14.1 µM. The GI50 was 13.9 µM (inactive) in the experiment on BT-549 and 8.83 µM (inactive) with ACHN.
Regarding `O=C(N[C@H](CO)[C@H](O)c1ccc([N+](=O)[O-])cc1)C(Cl)Cl` [CHLORAMPHENICOL], the GI50 was > 100 µM (inactive) in the experiment with NCI-H522; > 100 µM (inactive) in the experiment with SK-MEL-5; > 100 µM (inactive) with HCC 2998; 85.3 µM (inactive) in the experiment with HOP-92; > 100 µM (inactive) in the experiment with UO-31; > 100 µM (inactive) with HL-60. The GI50 in the experiment on NCI-H226 was > 100 µM (inactive); with NCI/ADR-RES, > 100 µM (inactive); in the experiment on PC-3, > 100 µM (inactive); in the experiment with KM12, > 100 µM (inactive); with NCI-H23, > 100 µM (inactive); in the experiment on OVCAR-4, > 95.9 µM (inactive). Further, the GI50 in the experiment on U-251 is > 100 µM (inactive); in the experiment with OVCAR-3 it was > 100 µM (inactive); in the experiment with 786-0 it was > 100 µM (inactive); in the experiment with CAKI-1, > 100 µM (inactive); with SF-268, > 100 µM (inactive); with HCT-15 it was over 100 µM. The GI50 with BT-549 and in the experiment on ACHN was > 100 µM (inactive) in each case.
`Cc1c(CN)c(C)c(CN)c(C)c1CN`: the GI50 in the experiment with NCI-H522 is 86.7 µM (inactive); with SK-MEL-5, > 100 µM (inactive); in the experiment with HCC 2998, > 100 µM (inactive); in the experiment on HOP-92 it was > 100 µM (inactive); with HL-60 it was > 100 µM (inactive); in the experiment on NCI-H226, > 100 µM (inactive). The GI50 in the experiment on NCI/ADR-RES is > 100 µM (inactive); in the experiment on PC-3 it was > 100 µM (inactive); in the experiment with KM12 it was > 100 µM (inactive); in the experiment on NCI-H23, 27 µM (inactive); with OVCAR-4 it was > 100 µM (inactive); in the experiment with U-251, > 100 µM (inactive). Also, the GI50 in the experiment on 786-0 was > 100 µM (inactive); in the experiment with CAKI-1, > 100 µM (inactive); in the experiment with SF-268, > 100 µM (inactive); in the experiment with HCT-15, over 100 µM; with BT-549, > 100 µM (inactive); in the experiment with ACHN, > 100 µM (inactive).
For `N#Cc1ccc2[nH]c3c(c2c1)CC(=O)Nc1ccccc1-3` [PAULLONE 2], the GI50 was 28.8 µM (inactive) in the experiment with NCI-H522; > 100 µM (inactive) with SK-MEL-5; > 100 µM (inactive) with HCC 2998; > 100 µM (inactive) in the experiment with HOP-92; > 100 µM (inactive) in the experiment on UO-31; > 100 µM (inactive) in the experiment on HL-60. Moreover, the GI50 in the experiment with NCI-H226, in the experiment on NCI/ADR-RES, with PC-3, with NCI-H23, in the experiment with OVCAR-4 and with U-251 was > 100 µM (inactive) throughout. Moreover, the GI50 in the experiment on OVCAR-3 was > 100 µM (inactive); in the experiment on 786-0, > 100 µM (inactive); in the experiment with CAKI-1, > 100 µM (inactive); with SF-268 it was > 100 µM (inactive); in the experiment on HCT-15 it was over 100 µM; in the experiment with BT-549, > 100 µM (inactive). In addition, in the experiment with ACHN, the GI50 was > 100 µM (inactive).
As to `CN(C)/N=N/c1[nH]cnc1C(N)=O` [DACARBAZINE], the GI50 is 67.1 µM (inactive) in the experiment on NCI-H522; 74.6 µM (inactive) with SK-MEL-5; 45.8 µM (inactive) in the experiment with HCC 2998; 30.3 µM (inactive) in the experiment with HOP-92; 32.1 µM (inactive) with UO-31; 14.9 µM (inactive) with HL-60. The GI50 was 75.2 µM (inactive) in the experiment with NCI-H226; 66.4 µM (inactive) with NCI/ADR-RES; > 96.4 µM (inactive) in the experiment on PC-3; 92.7 µM (inactive) in the experiment on KM12; 93.8 µM (inactive) with NCI-H23; 34.8 µM (inactive) with OVCAR-4. The GI50 is 92 µM (inactive) in the experiment with U-251; 55.3 µM (inactive) in the experiment with OVCAR-3; 87.9 µM (inactive) with 786-0; 19 µM (inactive) in the experiment with CAKI-1; 63.8 µM (inactive) with SF-268; 94.6 µM in the experiment with HCT-15. Further, the GI50 in the experiment on BT-549 was 51.3 µM (inactive).
As to `CCN(C(=O)N[C@H](C(=O)N[C@@H](CSC)C(=O)N[C@@H](C)C(=O)OC)C(C)C)c1ccccc1`, the GI50 was 10.2 µM (inactive) with NCI-H522; 16.7 µM (inactive) with SK-MEL-5; 19.6 µM (inactive) in the experiment with HCC 2998; 12.8 µM (inactive) in the experiment on HOP-92; 17.5 µM (inactive) in the experiment on UO-31; 16.3 µM (inactive) in the experiment with NCI-H226. The GI50 in the experiment with NCI/ADR-RES was > 100 µM (inactive); with PC-3, 16.9 µM (inactive); in the experiment on KM12 it was 15.3 µM (inactive); in the experiment on NCI-H23, 17.8 µM (inactive); in the experiment with OVCAR-4, 20 µM (inactive); with U-251, 15.9 µM (inactive). Also, the GI50 in the experiment with OVCAR-3 was 20 µM (inactive); with 786-0 it was 17.2 µM (inactive); in the experiment on CAKI-1, 20 µM (inactive); with HCT-15 it was 17.8 µM; in the experiment on BT-549, 18.1 µM (inactive); in the experiment on ACHN, 15.6 µM (inactive).
Take `COC(=O)CNC(=O)C(CSC(=O)OCC1c2ccccc2-c2ccccc21)NC(=O)CCC(NC(=O)OCC1c2ccccc2-c2ccccc21)C(=O)OC` (stereo unspecified): the GI50 in the experiment on NCI-H522 was 4.65 µM (inactive); with SK-MEL-5 it was 78.7 µM (inactive); in the experiment on HCC 2998, 21.2 µM (inactive); in the experiment on HOP-92, 13.5 µM (inactive); with UO-31, 18.7 µM (inactive); with HL-60, 19.1 µM (inactive). In addition, the GI50 in the experiment with NCI-H226 was 99.1 µM (inactive); in the experiment with NCI/ADR-RES it was 41 µM (inactive); with PC-3, 30.8 µM (inactive); in the experiment with NCI-H23, 17.5 µM (inactive); in the experiment on OVCAR-4, 16.9 µM (inactive); with OVCAR-3, 18.1 µM (inactive). The GI50 is 13.7 µM (inactive) in the experiment on 786-0; 7.5 µM (inactive) in the experiment on CAKI-1; 21.3 µM (inactive) in the experiment on SF-268; 28 µM in the experiment with HCT-15; 17.5 µM (inactive) in the experiment with BT-549; 55.1 µM (inactive) in the experiment with ACHN.
For the compound `COc1cc(C2SCC(=O)N2c2ccc(-n3c(-c4ccccc4)nc4ccccc4c3=O)cc2)cc(OC)c1OC` (stereo unspecified), the GI50 with NCI-H522 was > 100 µM (inactive); in the experiment with SK-MEL-5 it was 68.9 µM (inactive); with HCC 2998 it was > 100 µM (inactive); in the experiment with HOP-92, 28.6 µM (inactive); in the experiment with UO-31 it was 8.71 µM (inactive); with HL-60, > 100 µM (inactive). Moreover, the GI50 in the experiment with NCI/ADR-RES was > 100 µM (inactive); in the experiment with PC-3, > 100 µM (inactive); in the experiment with KM12, 97.3 µM (inactive); in the experiment on NCI-H23, > 100 µM (inactive); with OVCAR-4 it was > 100 µM (inactive); in the experiment on U-251, > 100 µM (inactive). Also, the GI50 with OVCAR-3 is > 100 µM (inactive); in the experiment on 786-0, > 100 µM (inactive); with CAKI-1, > 100 µM (inactive); with SF-268, 82.4 µM (inactive); with HCT-15, 71.1 µM; in the experiment on BT-549, > 100 µM (inactive). Further, the GI50 in the experiment on ACHN was > 100 µM (inactive).
With `O=c1c2c3c(sc2nc2n1N=CN(c1ccccc1)C2)CCCC3`, the GI50 in the experiment with NCI-H522, in the experiment with SK-MEL-5, in the experiment on HCC 2998, in the experiment with HOP-92, in the experiment with UO-31 and with NCI-H226 was > 100 µM (inactive) in each case. In addition, the GI50 with NCI/ADR-RES, with PC-3, with KM12, in the experiment with NCI-H23, with OVCAR-4 and in the experiment with U-251 was > 100 µM (inactive) in each case. Also, the GI50 with OVCAR-3 is > 100 µM (inactive); in the experiment on 786-0 it was > 100 µM (inactive); in the experiment with CAKI-1, > 100 µM (inactive); in the experiment on SF-268, > 100 µM (inactive); with HCT-15 it was over 100 µM; in the experiment with BT-549, > 100 µM (inactive). Also, in the experiment on ACHN, the GI50 is > 100 µM (inactive).
In the case of `OCC1OC(c2cccc3cc(O)c(O)cc23)CC1O` (stereo unspecified), the GI50 is > 100 µM (inactive) in the experiment on NCI-H522; > 100 µM (inactive) with HCC 2998; > 100 µM (inactive) with HOP-92; > 100 µM (inactive) in the experiment with UO-31; 42.3 µM (inactive) with HL-60; 66.7 µM (inactive) in the experiment on NCI-H226. Besides, the GI50 in the experiment with NCI/ADR-RES is > 100 µM (inactive); in the experiment with PC-3 it was > 100 µM (inactive); with KM12, > 100 µM (inactive); in the experiment on OVCAR-4 it was > 100 µM (inactive); with U-251 it was > 100 µM (inactive); in the experiment with OVCAR-3, 94.8 µM (inactive). Moreover, the GI50 is > 100 µM (inactive) with 786-0; 93.1 µM (inactive) in the experiment with SF-268; over 100 µM in the experiment on HCT-15; > 100 µM (inactive) with BT-549; > 100 µM (inactive) in the experiment on ACHN.
In the case of `O=C1Oc2ccccc2C(=O)/C1=C/N1C(=O)/C(=C/c2ccc([N+](=O)[O-])cc2)SC1=S`, the GI50 was 20.7 µM (inactive) in the experiment on NCI-H522; 19.7 µM (inactive) in the experiment on SK-MEL-5; 19.1 µM (inactive) with HCC 2998; 1.08 µM (active) in the experiment on HOP-92; 36.1 µM (inactive) with HL-60; 15.1 µM (inactive) with NCI-H226. Also, the GI50 is 23.7 µM (inactive) in the experiment with NCI/ADR-RES; 18.2 µM (inactive) in the experiment on PC-3; 19 µM (inactive) in the experiment with KM12; 14 µM (inactive) in the experiment with NCI-H23; 20.8 µM (inactive) in the experiment with OVCAR-4; 18.9 µM (inactive) in the experiment with U-251. Also, the GI50 was 2.71 µM (inactive) in the experiment with OVCAR-3; 30.5 µM (inactive) in the experiment with 786-0; 24.5 µM (inactive) in the experiment with CAKI-1; 23.2 µM (inactive) with SF-268; 19.1 µM with HCT-15; 7.16 µM (inactive) in the experiment with BT-549. In the experiment with ACHN, the GI50 was 15.6 µM (inactive).
